Measured values taken from patent publication US20240409585A1, “MACROCYCLIC IMMUNOMODULATORS” (priority 2021, published 2024).
Bridge positions count the residues as written; N and C are the ends. Square brackets hold non-standard residues; d marks the D form. Peptide text beside a SMILES is read from it. * marks the point of attachment. ξ: configuration not given here. Phe(4-COOH) = N[C@@H](Cc1ccc(C(=O)O)cc1)C(=O)O; Bip = N[C@@H](Cc1ccc(-c2ccccc2)cc1)C(=O)O; Phe(3-OMe) = COc1cccc(C[C@H](N)C(=O)O)c1; Phe(4-CN) = N#Cc1ccc(C[C@H](N)C(=O)O)cc1; Phe(3-Me) = Cc1cccc(C[C@H](N)C(=O)O)c1; Bta = N[C@@H](Cc1csc2ccccc12)C(=O)O; Val(3-OH) = CC(C)(O)[C@H](N)C(=O)O; ξW = NC(Cc1c[nH]c2ccccc12)C(=O)O; 3Pal = N[C@@H](Cc1cccnc1)C(=O)O; Cha = N[C@@H](CC1CCCCC1)C(=O)O; Cit = NC(=O)NCCC[C@H](N)C(=O)O; Ile(3ξ) = CCC(C)[C@H](N)C(=O)O; Thr(3ξ) = CC(O)[C@H](N)C(=O)O; NMeNle = CCCC[C@H](NC)C(=O)O; Dap(Me) = CNC[C@H](N)C(=O)O; Carboxymethyl = O=C(O)C*; NMeA = CN[C@@H](C)C(=O)O; Pra = C#CC[C@H](N)C(=O)O; Dab = NCC[C@H](N)C(=O)O; Dap = NC[C@H](N)C(=O)O; ξC = NC(CS)C(=O)O

Molecular target: T1, PE-labeled human PD-L1-Ig binding to Jurkat cell line over-expressing human PD-1 (Jurkat-PD-1) (Homo sapiens, UniProt Q15116)
T1 construct: expressed in transfected cells; host or cells: Jurkat
Assay: Jurkat-PD-1 Cell Binding High-Content Screening Assay (CBA): Method 1
Settings: Jurkat-hPD-1 cells, PE-labeled PD-L1-Ig 20 nM final; read-out: Jurkat HPDL1 PD1 IC50 (uM) (Method 1)

T1 sequence (Q15116 25-288): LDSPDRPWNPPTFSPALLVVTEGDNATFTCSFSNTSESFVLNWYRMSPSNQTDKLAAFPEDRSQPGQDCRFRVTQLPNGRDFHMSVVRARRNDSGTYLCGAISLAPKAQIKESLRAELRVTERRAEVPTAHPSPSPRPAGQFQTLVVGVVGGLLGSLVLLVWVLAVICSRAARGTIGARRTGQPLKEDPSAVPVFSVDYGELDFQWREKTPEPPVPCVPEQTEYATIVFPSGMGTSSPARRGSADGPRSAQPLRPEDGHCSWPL

| Compound | IC50 |
| --- | --- |
| CCC(C)[C@@H]1NC(=O)[C@H](Cc2ccc(-c3ccccc3)cc2)NC(=O)[C@H](C(C)C)NC(=O)[C@H](Cc2c[nH]c3ccccc23)NC(=O)[C@H](CC(N)=O)NC(=O)[C@H](Cc2ccc(O)cc2)NC(=O)[C@H](CC(N)=O)NC(=O)CSCC(C(=O)NCC(N)=O)NC(=O)[C@H](C(C)O)NC(=O)[C@H](C(C)C)NC(=O)[C@H](CC2CCCCC2)NC(=O)[C@H](CC(N)=O)NC(=O)[C@@H](CC(C)C)NC(=O)[C@H](C)N(C)C1=O (stereo partly drawn) [Compound 2066] ({CH2CO}-NYNWV[Bip][Ile(3ξ)][NMeA][dL]N[Cha]V[Thr(3ξ)][ξC]G-NH2; thioether N-14) | 0.35 µM |
| C#CC[C@H](NC(=O)[C@@H](C)NC(=O)[C@@H]1CSCC(=O)N[C@@H]([C@@H](C)O)C(=O)N[C@@H](Cc2ccc(OCC(=O)O)cc2)C(=O)N[C@@H](CC(=O)O)C(=O)N[C@@H](Cc2cccc(C)c2)C(=O)N[C@@H](Cc2ccc(OCC(=O)O)cc2)C(=O)N[C@@H](Cc2ccc(-c3ccccc3)cc2)C(=O)N[C@@H](Cc2ccc(OCC(=O)O)cc2)C(=O)N(C)[C@@H](C)C(=O)N[C@H](CC(C)C)C(=O)N[C@@H](CCN)C(=O)N[C@@H](CC2CCCCC2)C(=O)N[C@@H](C(C)(C)O)C(=O)N[C@@H](CCC(=O)O)C(=O)N1)C(N)=O [Compound 1945] ({CH2CO}-TY(Carboxymethyl)D[Phe(3-Me)]Y(Carboxymethyl)[Bip]Y(Carboxymethyl)[NMeA][dL][Dab][Cha][Val(3-OH)]EC[dA][Pra]-NH2; thioether N-14) | 0.93 µM |
| COc1cccc(C[C@@H]2NC(=O)[C@H](Cc3ccccc3)NC(=O)CSC[C@@H](C(=O)NCC(N)=O)NC(=O)[C@H](CO)NC(=O)[C@H](C(C)C)NC(=O)[C@H](CC(C)C)NC(=O)[C@H](CC(N)=O)NC(=O)[C@@H](CC(C)C)NC(=O)[C@H](C)N(C)C(=O)[C@H](C(C)C)NC(=O)[C@H](Cc3ccc(-c4ccccc4)cc3)NC(=O)[C@H](CC(C)C)NC(=O)[C@H](Cc3c[nH]c4ccccc34)NC(=O)[C@H](CC(=O)O)NC2=O)c1 [Compound 1521] ({CH2CO}-F[Phe(3-OMe)]DWL[Bip]V[NMeA][dL]NLVSCG-NH2; thioether N-14) | 0.07 µM |
| CCNC(=O)[C@H](CCN)NC(=O)[C@@H]1CSCC(=O)N[C@@H](Cc2cccnc2)C(=O)N[C@@H](Cc2ccc(OCC(=O)O)cc2)C(=O)N[C@@H](CC(=O)O)C(=O)N[C@@H](Cc2cccc(C)c2)C(=O)N[C@@H](Cc2ccc(OCC(=O)O)cc2)C(=O)N[C@@H](Cc2ccc(-c3ccccc3)cc2)C(=O)N[C@@H](Cc2ccc(OCC(=O)O)cc2)C(=O)N(C)[C@@H](C)C(=O)N[C@H](CC(C)C)C(=O)N[C@@H](CCN)C(=O)N[C@@H](CC2CCCCC2)C(=O)N[C@@H](C(C)C)C(=O)N[C@@H]([C@@H](C)O)C(=O)N1 [Compound 1856] ({CH2CO}-[3Pal]Y(Carboxymethyl)D[Phe(3-Me)]Y(Carboxymethyl)[Bip]Y(Carboxymethyl)[NMeA][dL][Dab][Cha]VTC[Dab]-NHEt; thioether N-14) | 0.02 µM |
| C#CC[C@H](NC(=O)[C@@H](C)NC(=O)[C@@H]1CSCC(=O)N[C@@H]([C@@H](C)O)C(=O)N[C@@H](Cc2ccc(OCC(=O)O)cc2)C(=O)N[C@@H](CC(=O)O)C(=O)N[C@@H](Cc2cccc(C)c2)C(=O)N[C@@H](Cc2ccc(OCC(=O)O)cc2)C(=O)N[C@@H](Cc2ccc(-c3ccccc3)cc2)C(=O)N[C@@H](Cc2ccc(OCC(=O)O)cc2)C(=O)N(C)[C@@H](C)C(=O)N[C@H](CC(C)C)C(=O)N[C@@H](CCN)C(=O)N[C@@H](CC2CCCCC2)C(=O)N[C@@H](C(C)(C)O)C(=O)N[C@@H](CCC(=O)O)C(=O)N1)C(=O)O [Compound 1944] ({CH2CO}-TY(Carboxymethyl)D[Phe(3-Me)]Y(Carboxymethyl)[Bip]Y(Carboxymethyl)[NMeA][dL][Dab][Cha][Val(3-OH)]EC[dA][Pra]-OH; thioether N-14) | 0.9 µM |
| CC(C)C[C@@H]1NC(=O)[C@H](CCCNC(=N)N)NC(=O)C(Cc2c[nH]c3ccccc23)NC(=O)[C@H](C)N(C)C(=O)[C@H](CCCNC(=N)N)NC(=O)[C@H](Cc2ccc(-c3ccccc3)cc2)NC(=O)[C@H](C(C)C)NC(=O)[C@H](Cc2c[nH]c3ccccc23)NC(=O)[C@H](CC(=O)O)NC(=O)[C@H](Cc2ccc(O)cc2)NC(=O)[C@H](Cc2ccccc2)NC(=O)CSC[C@@H](C(=O)NCC(N)=O)NC(=O)[C@H](CO)NC(=O)[C@H](C(C)C)NC1=O (stereo partly drawn) [Compound 1021] ({CH2CO}-FYDWV[Bip]R[NMeA][ξW]RLVSCG-NH2; thioether N-14) | 0.14 µM |

The remaining lines, values ahead:

| IC50 | Compound |
| --- | --- |
| 0.31 µM | CC(C)C[C@@H]1NC(=O)CSC[C@@H](C(=O)N[C@@H](C)C(N)=O)NC(=O)[C@H](CO)NC(=O)[C@H](C(C)C)NC(=O)[C@H](CC(C)C)NC(=O)[C@H](CCCNC(=N)N)NC(=O)[C@H](Cc2csc3ccccc23)NC(=O)[C@H](C)N(C)C(=O)[C@H](CCCNC(=N)N)NC(=O)[C@H](Cc2ccc(-c3ccccc3)cc2)NC(=O)[C@H](C(C)C)NC(=O)[C@H](Cc2c[nH]c3ccccc23)NC(=O)[C@H](CC(=O)O)NC(=O)[C@H](Cc2ccc(O)cc2)NC1=O [Compound 1041] ({CH2CO}-LYDWV[Bip]R[NMeA][Bta]RLVSCA-NH2; thioether N-14) |
| 0.13 µM | CC(C)C[C@@H]1NC(=O)[C@H](Cc2c[nH]c3ccccc23)NC(=O)[C@H](CC(N)=O)NC(=O)[C@H](Cc2ccc(O)cc2)NC(=O)[C@H](Cc2ccccc2)NC(=O)CSC[C@@H](C(=O)N[C@@H](C)C(N)=O)NC(=O)[C@H](CO)NC(=O)[C@H](C(C)C)NC(=O)[C@H](CC(C)C)NC(=O)[C@H](CC(N)=O)NC(=O)[C@@H](C)NC(=O)[C@H](C)N(C)C(=O)[C@H](C(C)C)NC(=O)[C@H](Cc2ccc(-c3ccccc3)cc2)NC1=O [Compound 1791] ({CH2CO}-FYNWL[Bip]V[NMeA][dA]NLVSCA-NH2; thioether N-14) |
| 0.08 µM | CNC[C@@H]1NC(=O)[C@@H](CC(C)C)NC(=O)[C@H](C)N(C)C(=O)[C@H](CCCNC(N)=O)NC(=O)[C@H](Cc2ccc(-c3ccccc3)cc2)NC(=O)[C@H](C(C)C)NC(=O)[C@H](Cc2c[nH]c3ccccc23)NC(=O)[C@H](CC(=O)O)NC(=O)[C@H](Cc2ccc(O)cc2)NC(=O)[C@H](CC(N)=O)NC(=O)CSC[C@@H](C(=O)N[C@@H](C)C(N)=O)NC(=O)[C@H](C(C)O)NC(=O)[C@H](C(C)C)NC(=O)[C@H](CC(C)C)NC1=O (stereo partly drawn) [Compound 2039] ({CH2CO}-NYDWV[Bip][Cit][NMeA][dL][Dap(Me)]LV[Thr(3ξ)]CA-NH2; thioether N-14) |
| 0.02 µM | CC(C)C[C@@H]1NC(=O)[C@H](Cc2c[nH]c3ccccc23)NC(=O)[C@H](CC(=O)O)NC(=O)[C@H](Cc2ccc(C(=O)O)cc2)NC(=O)[C@H](Cc2ccccc2)NC(=O)CSC[C@@H](C(=O)N[C@@H](C)C(N)=O)NC(=O)[C@H](CO)NC(=O)[C@H](C(C)C)NC(=O)[C@H](CC(C)C)NC(=O)[C@H](CCCCN)NC(=O)[C@@H](C)NC(=O)[C@H](C)N(C)C(=O)[C@H](CCC(=O)O)NC(=O)[C@H](Cc2ccc(-c3ccccc3)cc2)NC1=O [Compound 1746] ({CH2CO}-F[Phe(4-COOH)]DWL[Bip]E[NMeA][dA]KLVSCA-NH2; thioether N-14) |
| 0.05 µM | CC(C)C[C@@H]1NC(=O)[C@H](CCCCN)NC(=O)[C@@H](CC(C)C)NC(=O)[C@H](C)N(C)C(=O)[C@H](CCCNC(N)=O)NC(=O)[C@H](Cc2ccc(-c3ccccc3)cc2)NC(=O)[C@H](C(C)C)NC(=O)[C@H](Cc2c[nH]c3ccccc23)NC(=O)[C@H](CC(=O)O)NC(=O)[C@H](Cc2ccc(O)cc2)NC(=O)[C@H](CC(N)=O)NC(=O)CSC[C@@H](C(=O)NCC(N)=O)NC(=O)[C@H]([C@@H](C)O)NC(=O)[C@H](C(C)C)NC1=O [Compound 1475] ({CH2CO}-NYDWV[Bip][Cit][NMeA][dL]KLVTCG-NH2; thioether N-14) |
| 0.02 µM | COc1cccc(C[C@@H]2NC(=O)[C@H](CC(=O)O)NC(=O)[C@H](Cc3ccc(C(=O)O)cc3)NC(=O)[C@H](CN)NC(=O)CSC[C@@H](C(=O)N[C@@H](C)C(N)=O)NC(=O)[C@H]([C@@H](C)O)NC(=O)[C@H](C(C)C)NC(=O)[C@H](CC(C)C)NC(=O)[C@H](CCN)NC(=O)[C@@H](CC(C)C)NC(=O)[C@H](C)N(C)C(=O)[C@H](CCCNC(=N)N)NC(=O)[C@H](Cc3ccc(-c4ccccc4)cc3)NC(=O)[C@H](C(C)C)NC2=O)c1 [Compound 1460] ({CH2CO}-[Dap][Phe(4-COOH)]D[Phe(3-OMe)]V[Bip]R[NMeA][dL][Dab]LVTCA-NH2; thioether N-14) |
| 0.05 µM | CC(C)C[C@@H]1NC(=O)[C@H](CCCNC(=N)N)NC(=O)[C@@H](CC(C)C)NC(=O)[C@H]2CCCN2C(=O)[C@H](CCCNC(=N)N)NC(=O)[C@H](Cc2ccc(-c3ccccc3)cc2)NC(=O)[C@H](C(C)C)NC(=O)[C@H](Cc2c[nH]c3ccccc23)NC(=O)[C@H](CC(=O)O)NC(=O)[C@H](Cc2ccc(O)cc2)NC(=O)[C@H](CC(N)=O)NC(=O)CSC[C@@H](C(=O)N[C@@H](C)C(N)=O)NC(=O)[C@H]([C@@H](C)O)NC(=O)[C@H](C(C)C)NC1=O [Compound 1214] ({CH2CO}-NYDWV[Bip]R[dP][dL]RLVTCA-NH2; thioether N-14) |
| 0.11 µM | CCCC[C@H]1C(=O)N[C@H](CC(C)C)C(=O)N[C@@H](CCN)C(=O)N[C@@H](CC(C)C)C(=O)N[C@@H](C(C)C)C(=O)N[C@@H](CO)C(=O)N[C@H](C(=O)N[C@@H](CC(N)=O)C(=O)O)CSCC(=O)N[C@@H](C(C)O)C(=O)N[C@@H](Cc2ccc(OCC(=O)O)cc2)C(=O)N[C@@H](CC(=O)O)C(=O)N[C@@H](Cc2c[nH]c3ccccc23)C(=O)N[C@@H](CC(C)C)C(=O)N[C@@H](Cc2ccc(-c3ccccc3)cc2)C(=O)N[C@@H](C(C)CC)C(=O)N1C (stereo partly drawn) [Compound 2229] ({CH2CO}-[Thr(3ξ)]Y(Carboxymethyl)DWL[Bip][Ile(3ξ)][NMeNle][dL][Dab]LVSCN-OH; thioether N-14) |
| 0.05 µM | CC(C)C[C@@H]1NC(=O)[C@H](CCN)NC(=O)[C@@H](CC(C)C)NC(=O)[C@H](C)N(C)C(=O)[C@H](CCCNC(=N)N)NC(=O)[C@H](Cc2ccc(-c3ccccc3)cc2)NC(=O)[C@H](C(C)C)NC(=O)[C@H](Cc2c[nH]c3ccccc23)NC(=O)[C@H](CC(=O)O)NC(=O)[C@H](Cc2ccc(C#N)cc2)NC(=O)[C@H](CC(N)=O)NC(=O)CSC[C@@H](C(=O)N[C@@H](C)C(N)=O)NC(=O)[C@H]([C@@H](C)O)NC(=O)[C@H](C(C)C)NC1=O [Compound 1306] ({CH2CO}-N[Phe(4-CN)]DWV[Bip]R[NMeA][dL][Dab]LVTCA-NH2; thioether N-14) |
